# Test results as given in patent publication US20060205642A1, “Oral methods of treatment using proANF peptides” (priority 2005, published 2006).
# Columns and labels:
# [1] = test system: prostaglandin E2 (PGE2) synthesis; test: Prostaglandin E2 synthesis (FIG. 8); format: biochemical; details: n=6, ANOVA and Duncan's MRT
# [2] = Ischemic nonoliguric acute renal failure (ARF) in rats; format: in vivo, Sprague-Dawley rats
# Protocol: Ischemic nonologuric acute renal failure (ARF) was induced in 24 male Sprague-Dawley rats (Zivc-Miller), weighing 200-270 g with 50 min of ischemia. Seven of the ARF rats received proANF 31-67. There were 17 ARF rats in the control group. Each of these rats were handled identically with the control rats as well as the experimental group of rats receiving an osmotic pump placement two days after receiving a unilateral right nephrectomy followed by clamping left renal artery for 50 min. The only difference was that the control group received 0.9% saline only in their osmotic pumps, whereas the experimental group had proANF 31-67 dissolved in 0.9% saline within their osmotic pumps which pump for 72 hours into the peritoneal cavity. In the 17 control ARF rats their preischemic blood urea nitrogen (BUN) and creatinine levels of 16±1 and 0.56±0.05 mg/dl increased to 162±4 and 8.17±0.5 mg/dl, P<0.001, respect 4 of postischemia. ProANF 31-67 (0.3 μg·kg^−1·min^−1 intraperitoneally), decreased the BUN and creatinine levels to 53±17 mg/dl and 0.98±0.12 mg/dl (P<0.001) in seven animals where ARF had been established for two days. […] Acute tubular necrosis was <5% in the proANF 31-67-treated rats compared with 25% to >75% in the placebo-treated ARF animals.
substance,measurement,setting,value
H-EVVPPQVLSEPNEEAGAALSPLPEVPPWTGEVSPAQR-OH [proANF 31-67],prostaglandin E2 (PGE2) synthesis,[1],increase prostaglandin E2 (PGE2) synthesis
same,creatinine level,"[2]; 0.3 μg·kg^−1·min^−1 intraperitoneally, seven animals, ARF established two days, control ARF rats 8.17±0.5 at day 4",0.98 ± 0.12 mg/dL
same,blood urea nitrogen (BUN) level,"[2]; 0.3 μg·kg^−1·min^−1 intraperitoneally, seven animals, ARF established two days, control ARF rats 162±4 at day 4",53 ± 17 mg/dL
same,acute tubular necrosis,[2]; 25% to >75% in placebo-treated animals,< 5%
same,mortality at day 6 of ARF,[2]; 88% without proANF 31-67,14%
same,left ventricular dilation (transthoracic echocardiography),[2]; ARF rats,reversed this dilation
same,water excretion,[2]; doubled with ARF,further augmented
same,survival (Kaplan-Meir plot),[2]; from day 4 (P<0.01) and day 5 onward (P<0.001) vs placebo-treated ARF rats,significant advantage with respect to survival
